From BindingDB's records for doi:10.1111/j.1747-0285.2009.00902.x (Institut Des BiomolÉCules Max Mousseron (Ibmm), 2009)
Several values for one entry are separate records, joined by “and”; a condition that tells them apart may be missing. Equal entries are not always repeated.

Molecular target: Carbonic anhydrase 6 (Homo sapiens, UniProt P23280)
Assay: Enzyme Inhbition Assay
Conditions: pH 7.5; 20 °C
Excerpt: Inhibition assay using carbonic anhydrases with an SX.18MV-R, a stopped-flow instrument from Applied Photophysics was used for assaying the CA catalyzed CO2 hydration activity.

Sequence of Carbonic anhydrase 6 (P23280 whole entry): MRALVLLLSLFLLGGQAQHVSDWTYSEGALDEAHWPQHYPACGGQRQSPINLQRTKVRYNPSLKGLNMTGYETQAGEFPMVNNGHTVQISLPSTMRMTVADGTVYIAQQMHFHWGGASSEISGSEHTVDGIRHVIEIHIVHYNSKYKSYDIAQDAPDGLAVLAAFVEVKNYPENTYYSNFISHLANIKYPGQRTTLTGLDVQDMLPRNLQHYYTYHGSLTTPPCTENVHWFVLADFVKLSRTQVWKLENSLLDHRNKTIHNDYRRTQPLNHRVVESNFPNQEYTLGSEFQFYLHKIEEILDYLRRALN

NS(=O)(=O)c1ccc(NC2OCC(O)C(O)C2O)cc1 (configuration not stated)
Ki: 3.5 nM and 5.1 nM and 0.56 nM

CC1OC(Nc2ccc(S(N)(=O)=O)cc2)C(O)C(O)C1O (configuration not stated)
Ki: 3.4 nM and 13 nM
